Measurements reported in PMC5896373 (Molecular Pharmacology, 2018).
Substitutions are numbered along the chain they refer to. pIC50: −log10 of the molar value.

What was measured:
P2X7R point mutant Y298A = target: T1, P2X7R point mutant Y298A (Homo sapiens, UniProt Q99572, I21V/M24R/N16P/N25R/Q22R/R20V/S23N/T19I/Y26L/Y298A); assay: cell-based
T1 construct: expressed in transfected cells; host or cells: Xenopus laevis oocytes (cRNA injection)
Description: (§1) Injected oocytes were stored at 16°C in ND96 buffer [in millimolar concentrations, NaCl 96, KCl 2, CaCl2 1.8, MgCl2 1, sodium pyruvate 5, and HEPES 5 (pH 7.6) supplemented with 50 μg/ml gentamycin and 50 μg/ml tetracycline]. Three to seven days postinjection two-electrode voltage clamp recordings were made from oocytes bathed in divalent-free ND96 buffer (in millimolar concentrations, NaCl 96, KCl 2, sodium pyruvate 5, HEPES 5, and 0.1 flufenamic acid, pH 7.6). Oocytes were voltage clamped at a holding potential of −60 mV with a GeneClamp500B amplifier (Molecular Devices).
Inhibition by the antagonists was expressed as the percentage of the peak current amplitude of an EC90 concentration of ATP recorded before the application of antagonist (ATP gave reproducible responses to ATP in the absence of antagonist). Inhibition curves were fitted with the Hill equation (variable slope) using GraphPad Prism 6 (GraphPad Software, San Diego, CA). […] Individual concentration-response curves were generated for individual experiments, and statistical analysis was carried out on the data generated. When shown in figures, the inhibition curves are fitted to the mean normalized data. […] Data are shown as mean ± S.E.M. In all cases n ≥ 3 for all data points.

P2X7R point mutant F88A = target: T2, P2X7R point mutant F88A (Homo sapiens, UniProt Q99572, F88A/I21V/M24R/N16P/N25R/Q22R/R20V/S23N/T19I/Y26L); assay: Two-electrode voltage clamp of ATP-evoked currents in Xenopus oocytes; type: cell-based; conditions: EC90 ATP, mean ± S.E.M.
T2 construct: expressed in transfected cells; host or cells: Xenopus laevis oocytes (cRNA injection)
T2 sequence (Q99572 whole entry N16P/T19I/R20V/I21V/Q22R/S23N/M24R/N25R/Y26L/F88A): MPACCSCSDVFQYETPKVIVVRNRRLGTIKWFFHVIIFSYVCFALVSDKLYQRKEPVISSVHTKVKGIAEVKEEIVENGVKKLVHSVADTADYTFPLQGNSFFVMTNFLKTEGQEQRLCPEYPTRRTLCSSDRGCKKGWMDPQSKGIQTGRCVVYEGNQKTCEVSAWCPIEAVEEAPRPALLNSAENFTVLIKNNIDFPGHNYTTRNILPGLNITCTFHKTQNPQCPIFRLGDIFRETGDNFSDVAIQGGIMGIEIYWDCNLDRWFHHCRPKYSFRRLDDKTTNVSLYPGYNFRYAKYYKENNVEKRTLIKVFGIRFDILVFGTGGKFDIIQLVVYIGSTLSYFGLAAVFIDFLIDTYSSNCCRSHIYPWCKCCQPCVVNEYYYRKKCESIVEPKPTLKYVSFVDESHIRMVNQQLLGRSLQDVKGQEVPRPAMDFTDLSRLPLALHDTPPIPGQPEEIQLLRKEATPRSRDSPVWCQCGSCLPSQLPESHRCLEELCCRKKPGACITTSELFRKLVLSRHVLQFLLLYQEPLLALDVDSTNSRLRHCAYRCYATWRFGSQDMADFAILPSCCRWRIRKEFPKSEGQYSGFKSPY
Description: (§2) Additional point mutants were made using the QuikChange mutagenesis kit (Stratagene California, La Jolla, CA). The production of the correct mutations and absence of coding errors was determined by DNA sequencing (Automated ABI Sequencing Service, University of Leicester, UK). cRNA was generated for the mutants and 50 nl (50 ng) was injected into manually defoliculated stage V Xenopus laevis oocytes using an Inject+Matic microinjector (J.A. Gabay, Inject+Matic, Geneva, Switzerland). Injected oocytes were stored at 16°C in ND96 buffer [in millimolar concentrations, NaCl 96, KCl 2, CaCl2 1.8, MgCl2 1, sodium pyruvate 5, and HEPES 5 (pH 7.6) supplemented with 50 μg/ml gentamycin and 50 μg/ml tetracycline]. Three to seven days postinjection two-electrode voltage clamp recordings were made from oocytes bathed in divalent-free ND96 buffer (in millimolar concentrations, NaCl 96, KCl 2, sodium pyruvate 5, HEPES 5, and 0.1 flufenamic acid, pH 7.6). Oocytes were voltage clamped at a holding potential of −60 mV with a GeneClamp500B amplifier (Molecular Devices).
(§3) Inhibition by the antagonists was expressed as the percentage of the peak current amplitude of an EC90 concentration of ATP recorded before the application of antagonist (ATP gave reproducible responses to ATP in the absence of antagonist). […]

P2X7R point mutant T90V = target: T3, P2X7R point mutant T90V (Homo sapiens, UniProt Q99572, I21V/M24R/N16P/N25R/Q22R/R20V/S23N/T19I/T90V/Y26L); assay: as above; type: cell-based; conditions: EC90 ATP, mean ± S.E.M.
T3 construct: expressed in transfected cells; host or cells: Xenopus laevis oocytes (cRNA injection)
T3 sequence (Q99572 whole entry N16P/T19I/R20V/I21V/Q22R/S23N/M24R/N25R/Y26L/T90V): as the sequence (Q99572 whole entry N16P/T19I/R20V/I21V/Q22R/S23N/M24R/N25R/Y26L/F88A) above, with A88F, T90V counted along it
Description: as §2, §3

P2X7R point mutant K297G = target: T4, P2X7R point mutant K297G (Homo sapiens, UniProt Q99572, I21V/K297G/M24R/N16P/N25R/Q22R/R20V/S23N/T19I/Y26L); assay: as above; type: cell-based; conditions: EC90 ATP, mean ± S.E.M.
T4 construct: expressed in transfected cells; host or cells: Xenopus laevis oocytes (cRNA injection)
T4 sequence (Q99572 whole entry N16P/T19I/R20V/I21V/Q22R/S23N/M24R/N25R/Y26L/K297G): as the sequence (Q99572 whole entry N16P/T19I/R20V/I21V/Q22R/S23N/M24R/N25R/Y26L/F88A) above, with A88F, K297G counted along it
Description: as §2, §3

P2X7R point mutant L83A = target: T5, P2X7R point mutant L83A (Homo sapiens, UniProt Q99572, I21V/L83A/M24R/N16P/N25R/Q22R/R20V/S23N/T19I/Y26L); assay: as above; type: cell-based; conditions: EC90 ATP, mean ± S.E.M.
T5 construct: expressed in transfected cells; host or cells: Xenopus laevis oocytes (cRNA injection)
T5 sequence (Q99572 whole entry N16P/T19I/R20V/I21V/Q22R/S23N/M24R/N25R/Y26L/L83A): as the sequence (Q99572 whole entry N16P/T19I/R20V/I21V/Q22R/S23N/M24R/N25R/Y26L/F88A) above, with L83A, A88F counted along it
Description: as §1
(§4) Inhibition by the antagonists was expressed as the percentage of the peak current amplitude of an EC90 concentration of ATP recorded before the application of antagonist (ATP gave reproducible responses to ATP in the absence of antagonist). Inhibition curves were fitted with the Hill equation (variable slope) using GraphPad Prism 6 (GraphPad Software, San Diego, CA). […] Individual concentration-response curves were generated for individual experiments, and statistical analysis was carried out on the data generated. […] Data are shown as mean ± S.E.M. In all cases n ≥ 3 for all data points.

P2X7R point mutant D92A = target: T6, P2X7R point mutant D92A (Homo sapiens, UniProt Q99572, D92A/I21V/M24R/N16P/N25R/Q22R/R20V/S23N/T19I/Y26L); assay: as above; type: cell-based; conditions: EC90 ATP, mean ± S.E.M.
T6 construct: expressed in transfected cells; host or cells: Xenopus laevis oocytes (cRNA injection)
T6 sequence (Q99572 whole entry N16P/T19I/R20V/I21V/Q22R/S23N/M24R/N25R/Y26L/D92A): as the sequence (Q99572 whole entry N16P/T19I/R20V/I21V/Q22R/S23N/M24R/N25R/Y26L/F88A) above, with A88F, D92A counted along it
Description: as §1, §4

P2X7R point mutant F108C = target: T7, P2X7R point mutant F108C (Homo sapiens, UniProt Q99572, F108C/I21V/M24R/N16P/N25R/Q22R/R20V/S23N/T19I/Y26L); assay: cell-based
T7 construct: expressed in transfected cells; host or cells: Xenopus laevis oocytes (cRNA injection)
T7 sequence (Q99572 whole entry N16P/T19I/R20V/I21V/Q22R/S23N/M24R/N25R/Y26L/F108C): as the sequence (Q99572 whole entry N16P/T19I/R20V/I21V/Q22R/S23N/M24R/N25R/Y26L/F88A) above, with A88F, F108C counted along it
Description: as §1, §4

[1] = target: T8, chimeric P2X7/1 receptor 295–310 (Homo sapiens, UniProt Q99572, E305N/I21V/I310F/K297R/K300V/K306Y/M24R/N16P/N25R/N303G/Q22R/R20V/S23N/T19I/T308H/V304T/Y26L/Y295F/Y298H/Y299F); assay: cell-based; type: cell-based
T8 construct: expressed in transfected cells; host or cells: Xenopus laevis oocytes (cRNA injection)
T8 sequence (Q99572 1-595 with the stated changes): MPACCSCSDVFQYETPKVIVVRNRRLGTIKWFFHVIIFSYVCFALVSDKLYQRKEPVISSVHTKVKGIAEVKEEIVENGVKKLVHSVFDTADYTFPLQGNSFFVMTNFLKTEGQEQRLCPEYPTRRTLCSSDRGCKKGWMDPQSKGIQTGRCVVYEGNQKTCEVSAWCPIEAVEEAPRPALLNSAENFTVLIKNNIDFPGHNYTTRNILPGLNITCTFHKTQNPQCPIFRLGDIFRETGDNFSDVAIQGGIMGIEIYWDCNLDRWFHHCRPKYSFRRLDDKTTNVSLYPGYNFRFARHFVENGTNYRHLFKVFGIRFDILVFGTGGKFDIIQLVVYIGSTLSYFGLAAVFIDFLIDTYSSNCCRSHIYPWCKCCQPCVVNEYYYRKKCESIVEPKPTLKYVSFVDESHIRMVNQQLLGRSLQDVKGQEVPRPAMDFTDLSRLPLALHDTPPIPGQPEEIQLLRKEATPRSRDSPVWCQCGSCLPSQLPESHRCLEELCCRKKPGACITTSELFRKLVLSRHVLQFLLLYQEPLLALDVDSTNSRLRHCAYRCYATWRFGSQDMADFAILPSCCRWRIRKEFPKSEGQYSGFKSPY
Description: as §2, §4

[2] = target: T9, chimeric P2X7/1 receptor 81–88 (Homo sapiens, UniProt Q99572, F88W/H85P/I21V/K81P/K82G/M24R/N16P/N25R/Q22R/R20V/S23N/S86Q/T19I/V84G/Y26L); assay: Two-electrode voltage clamp of ATP-evoked currents in Xenopus oocytes; type: cell-based
T9 construct: expressed in transfected cells; host or cells: Xenopus laevis oocytes (cRNA injection)
T9 sequence (Q99572 1-595 N16P/T19I/R20V/I21V/Q22R/S23N/M24R/N25R/Y26L/K81P/K82G/V84G/H85P/S86Q/F88W): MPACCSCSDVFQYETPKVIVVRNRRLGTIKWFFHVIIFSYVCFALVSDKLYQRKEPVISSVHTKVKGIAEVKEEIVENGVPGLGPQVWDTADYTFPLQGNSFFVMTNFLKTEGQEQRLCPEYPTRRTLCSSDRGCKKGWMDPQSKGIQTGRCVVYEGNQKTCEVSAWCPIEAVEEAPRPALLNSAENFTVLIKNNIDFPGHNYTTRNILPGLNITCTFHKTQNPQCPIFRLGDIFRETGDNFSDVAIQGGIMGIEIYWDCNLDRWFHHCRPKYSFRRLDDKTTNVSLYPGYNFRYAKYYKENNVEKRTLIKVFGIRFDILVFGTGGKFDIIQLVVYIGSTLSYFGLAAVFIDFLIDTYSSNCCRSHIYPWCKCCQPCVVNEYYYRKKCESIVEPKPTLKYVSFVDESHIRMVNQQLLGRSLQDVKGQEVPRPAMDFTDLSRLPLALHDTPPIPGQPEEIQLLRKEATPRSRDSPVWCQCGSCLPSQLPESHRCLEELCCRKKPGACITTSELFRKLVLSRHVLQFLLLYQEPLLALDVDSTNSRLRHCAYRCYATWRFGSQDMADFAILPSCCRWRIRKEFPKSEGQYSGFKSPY
Description: as §2, §4

P2X7R point mutant K110Y = target: T10, P2X7R point mutant K110Y (Homo sapiens, UniProt Q99572, I21V/K110Y/M24R/N16P/N25R/Q22R/R20V/S23N/T19I/Y26L); assay: as above; type: cell-based
T10 construct: expressed in transfected cells; host or cells: Xenopus laevis oocytes (cRNA injection)
T10 sequence (Q99572 1-595 N16P/T19I/R20V/I21V/Q22R/S23N/M24R/N25R/Y26L/K110Y): T9 sequence (Q99572 1-595 N16P/T19I/R20V/I21V/Q22R/S23N/M24R/N25R/Y26L/K81P/K82G/V84G/H85P/S86Q/F88W) with P81K, G82K, G84V, P85H, Q86S, W88F, K110Y
Description: as §2, §4

T1 sequence (Q99572 whole entry N16P/T19I/R20V/I21V/Q22R/S23N/M24R/N25R/Y26L/Y298A): as the sequence (Q99572 whole entry N16P/T19I/R20V/I21V/Q22R/S23N/M24R/N25R/Y26L/F88A) above, with A88F, Y298A counted along it

SMILES: Cl.Clc1cccc(-c2nnnn2Cc2cccnc2)c1Cl.O [A438079, 3-(5-(2,3-dichlorophenyl)-1H-tetrazol-1-yl)methyl pyridine hydrochloride hydrate]
- pIC50 (P2X7R point mutant Y298A): 5.20
- pIC50 (P2X7R point mutant F88A): < 4.00
- pIC50 (P2X7R point mutant T90V): 5.30
- pIC50 (P2X7R point mutant K297G): 7.30
- pIC50 (P2X7R point mutant L83A): 6.10
- pIC50 (P2X7R point mutant D92A): < 4.00
- pIC50 (P2X7R point mutant F108C): 5.00
- pIC50 [1]: 5.00
- pIC50 [2]: 6.00
- pIC50 (P2X7R point mutant K110Y): 6.10

SMILES: COc1ccc(CC(=O)NC(N=C(NC#N)Nc2cccc3ncccc23)C(C)(C)C)cc1OC (stereo not shown) [A740003, N-[1-[[(cyanoamino)(5-quinolinylamino)methylene]amino]-2,2-dimethylpropyl]-3,4-dimethoxybenzeneacetamide]
- pIC50 (P2X7R point mutant Y298A): 5.70
- pIC50 (P2X7R point mutant F88A): 5.30
- pIC50 (P2X7R point mutant T90V): 6.40
- pIC50 (P2X7R point mutant K297G): 7.90
- pIC50 (P2X7R point mutant L83A): 6.50
- pIC50 (P2X7R point mutant D92A): 5.10
- pIC50 (P2X7R point mutant F108C): 6.00
- pIC50 [1]: 6.30
- pIC50 [2]: 7.10
- effect on antagonist potency relative to P2X7-2Nβ ([2]; chimera 81–88): no effect
- pIC50 (P2X7R point mutant K110Y): 7.00
- effect on antagonist sensitivity relative to P2X7-2Nβ (P2X7R point mutant K110Y; K110Y): no effect
